These results are taken from publication PMC10343752, “Anti-α-Glucosidase, SAR Analysis, and Mechanism Investigation of Indolo[1,2-b]isoquinoline Derivatives” (Molecules, 2023).

The target of data set [1] is T1, α-glucosidase from Saccharomyces cerevisiae (Saccharomyces cerevisiae, UniProt P53341).
T1 construct: purchased Sigma-Aldrich
Briefly: biochemical. The data set is classed as biochemical. The settings on record: for IC50: α-glucosidase 0.1 U/mL, PNPG 0.25 mM, pH 6.8, 37 °C, read-out: α-Glucosidase inhibitory activity IC50. The protocol:
(§1) α-Glucosidase from Saccharomyces cerevisiae (EC 3.2.1.20) was purchased from Sigma-Aldrich. p-Nitrophenyl-α-D-[…] (PNPG) was obtained from Abcam. Other reagents were commercially available.
After the addition of PNPG (0.25 mM), the change in absorbance was measured at 405 nm. […] All experiments were performed four times.

The target in data set [2] is T2, α-glucosidase (Saccharomyces cerevisiae, UniProt P53341).
T2 construct: purchased Sigma-Aldrich
T2 sequence (P53341 whole entry): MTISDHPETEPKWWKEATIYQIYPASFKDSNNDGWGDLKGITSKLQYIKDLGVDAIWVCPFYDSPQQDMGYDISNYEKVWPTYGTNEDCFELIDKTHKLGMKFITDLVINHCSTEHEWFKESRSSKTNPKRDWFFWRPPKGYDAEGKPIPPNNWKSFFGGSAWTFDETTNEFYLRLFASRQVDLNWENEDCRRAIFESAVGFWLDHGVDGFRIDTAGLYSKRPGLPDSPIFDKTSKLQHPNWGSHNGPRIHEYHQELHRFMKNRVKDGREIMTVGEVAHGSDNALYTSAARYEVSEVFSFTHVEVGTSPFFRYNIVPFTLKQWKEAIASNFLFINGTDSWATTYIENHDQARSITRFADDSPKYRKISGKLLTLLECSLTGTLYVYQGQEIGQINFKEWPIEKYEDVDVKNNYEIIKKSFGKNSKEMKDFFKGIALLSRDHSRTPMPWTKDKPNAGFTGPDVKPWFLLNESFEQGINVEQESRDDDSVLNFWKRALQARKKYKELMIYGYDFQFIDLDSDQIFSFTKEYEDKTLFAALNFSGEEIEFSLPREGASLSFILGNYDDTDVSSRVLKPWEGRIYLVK
The data set can be described thus: α-glucosidase inhibition kinetics (enzyme kinetics and Lineweaver-Burk substrate kinetics). Format: biochemical. The settings on record: for inhibition type (substrate kinetics): Lineweaver-Burk plots; for Ki / Kis / Vmax: inhibition kinetics constant; for reversibility of inhibition (enzyme kinetics): plots of remaining enzyme activity versus enzyme concentration.
Text: Compounds 9, 11, 13, 18, and 19 with different α-glucosidase inhibitory activity were selected as representative compounds to reveal the inhibition mechanism of indolo[1,2-b]isoquinoline derivatives (1–21) on α-glucosidase by the implementation of an inhibition kinetics study. […] For substrate kinetics (Figure 5b,d,f,h,j), the Lineweaver-Burk plots of remaining enzyme activity versus […] treated with compounds 9, 11, 13, 18, and 19 intersected at one point in the second quadrant, respectively. The inhibition kinetics study was an effective method by which to understand the inhibition mechanism of the inhibitor against the target protein. In a substrate kinetics study, different inhibition mechanisms of inhibitors manifested as different intersection positions of Lineweaver-Burk plots. […] Moreover, compounds 9, 11, 13, 18, and 19 bind with both free enzyme and enzyme-substrate complexes to inhibit α-glucosidase. The inhibition kinetics constants of compounds 9, 11, 13, 18, and 19 were obtained and are listed in Table 2, including Ki, Kis, Km, and Vmax values, which might be helpful to understand the inhibition mechanism.
as §1
The kinetics of enzyme inhibition for compounds 9, 11, 13, 18, and 19 were obtained by plotting the enzymatic reaction rate versus enzyme concentration with or without compounds 9, 11, 13, 18, and 19, and the kinetics of substrate inhibition were measured using Lineweaver Burk plots of the enzymatic reaction rate versus substrate concentration with or without compounds 9, 11, 13, 18, and 19 [37, 38, 39, 40].

Data set [3] deals with T2, α-glucosidase. Briefly: 3D fluorescence spectra of α-glucosidase with compounds. The data set is classed as binding. The settings on record: α-glucosidase 5 μM.
Text: The 3D fluorescence spectra of α-glucosidase with compounds 9, 11, 13, 18, and 19 was investigated to analyze the effect of compounds on the structure of α-glucosidase, respectively. Two important characteristic peaks appeared in the 3D fluorescence spectra of α-glucosidase (Figure 6a,c,e,g,i), including Peak 1 ([…]), corresponding to the main chain structure of the polypeptide, and Peak 2 ([…]), corresponding to tyrosine and tryptophan residues. […] (Figure 6b,d,f,h,j). Previously, 3D fluorescence spectra have been used to determine protein conformation changes.
as §1
Compounds 9, 11, 13, 18, and 19 were added to α-glucosidase (5 μM) in 100 μL of PBS and incubated for 5 min, then the 3D fluorescence spectra of the mixture were recorded [32]^. The excitation and emission wavelengths were 200–500 nm and the slit width was 2.5 nm. All data were imported into Matlab for processing.

Data set [4] addresses T2, α-glucosidase. Briefly: CD spectra, secondary structure contents of α-glucosidase. The data set is classed as binding. The conditions noted are these: for effect on CD band intensity of α-glucosidase: 190~280 nm.
Text: CD spectra were also monitored to study the effect of compounds 9, 11, 13, 18, and 19 on the conformational changes of α-glucosidase. As shown in Figure 7a–e, α-glucosidase presented two negative CD bands in the region of 190~280 nm, which was owed to the electronic transitions of n→π* of α-helical bonds. […] While treatment of compounds 9, 13, 18, and 19 led to an increase of α-helix and a reduction of β-sheet, β-turn, and random coils, respectively (Table 3). CD spectra have been an important method by which to study protein structural changes and secondary structural content. Previous research has shown that the interaction of an inhibitor with α-glucosidase caused the partial folding and loosening of the α-glucosidase structure.
as §1
Compounds 9, 11, 13, 18, and 19 with different concentrations were added into α-glucosidase solution (31 μM) and incubated for 5 min, respectively, then the CD spectra of the mixture were recorded. CDNN was used to analyze the ratio of protein secondary conformations.

The subject of another data set is hepatocytes LO2 cells. Briefly: In vitro cytotoxicity, MTT method. The data set is classed as cell-based. The settings on record: 24 h, up to a concentration of 32 μM. How it is done:
The in vitro cytotoxicity of compounds 9, 11, 13, 18, and 19 against hepatocytes LO2 cells was detected using the MTT method.
The in vitro cytotoxicity of compound 11 against hepatocytes LO2 cells was assayed using the MTT method. LO2 cells were cultured in DMEM containing 10% FBS, 100 IU/mL penicillin, and 100 IU/mL streptomycin at 37 °C under 5% CO2. An amount of 100 μL of LO2 cells was seeded into a 96-well plate (5000 per well) for 24 h, and was then treated with compounds 9, 11, 13, 18, and 19 for 24 h, respectively. Then, MTT solution was added into each well and incubated for 4 h. An amount of […] of DMSO was used to dissolve the obtained crystallization. Then, this absorbance was determined at 490 nm. Each sample was performed in triplicate.
On the technique in general: Tetrazolium assays rely on reduction of a dye to a coloured formazan, in cell work by metabolically active cells.

The mark [5] stands for this setting: molar ratio [α-Glu]:[Comp.] 1:1.
Where [6] appears, read: molar ratio [α-Glu]:[Comp.] 1:2.
Setting [7] is: molar ratio [α-Glu]:[Comp.] 1:3.

T1 sequence (P53341 whole entry): as above

As for `O=C1c2ccccc2-n2c1c(-c1ccccc1)c1ccccc1c2=O` [Compound 1], the IC50 (as a rule, the concentration at which inhibition is half-maximal) in data set [1] was 23.46 ± 0.23 µM.
Still for that read-out and setting: then `Cc1ccc(-c2c3n(c(=O)c4ccccc24)-c2ccccc2C3=O)cc1` [Compound 2], with 17.4 ± 0.25 µM; and `Cc1cccc(-c2c3n(c(=O)c4ccccc24)-c2ccccc2C3=O)c1` [Compound 3], with 9.25 ± 0.14 µM.
Still for that read-out and setting: under `Cc1ccccc1-c1c2n(c(=O)c3ccccc13)-c1ccccc1C2=O` [Compound 4] stands 22.3 ± 0.63 µM.
Same read-out and setting: under `CCc1ccc(-c2c3n(c(=O)c4ccccc24)-c2ccccc2C3=O)cc1` [Compound 5] stands 16.1 ± 0.46 µM.
Consider `CC(C)(C)c1ccc(-c2c3n(c(=O)c4ccccc24)-c2ccccc2C3=O)cc1` [Compound 6], for which, in data set [1], the IC50 was 5.76 ± 0.26 µM.
On the same count and under the same terms, then `O=C1c2ccccc2-n2c1c(-c1ccc(Cl)cc1)c1ccccc1c2=O` [Compound 7], with 14.7 ± 0.37 µM; and `COc1ccc(-c2c3n(c(=O)c4ccccc24)-c2ccccc2C3=O)cc1` [Compound 8], with 15.1 ± 0.44 µM.
Take `CN(C)c1ccc(-c2c3n(c(=O)c4ccccc24)-c2ccccc2C3=O)cc1` [Compound 9]: in data set [1], the IC50 turned out to be 40.9 ± 0.69 µM. Besides, on α-glucosidase [2], the “inhibition type (substrate kinetics)” value is “mixed-type inhibition”; the Ki (as a rule, the dissociation constant of the complex between target and ligand, obtained from inhibition or displacement) was determined as 30.5 µM; the Kis is 96.19 µM; the Vmax (in general, the top rate of the reaction or transport when substrate is in excess) was found to be 0.12 µM/min/mg. The “reversibility of inhibition (enzyme kinetics)” value (shortened to “reversibility of inhibition”) at α-glucosidase [2] is on record as “reversible”. On α-glucosidase [3], the “effect on fluorescence intensity of Peak 1 and Peak 2 of α-glucosidase” value (“effect on fluorescence intensity” for short) is recorded as “decrease the fluorescence intensity”. In addition, at α-glucosidase [4], the “effect on CD band intensity of α-glucosidase” value (“effect on CD band intensity” for short) is on record as “decrease in CD band intensity”. On α-glucosidase [4] (setting [5]), the “Rndm Coil” value is on record as 35.10%, the α-Helix is on record as 10.80%, the β-Sheet turned out to be 35.60% and the β-Turn is recorded as 19.30%. Further, at α-glucosidase [4] (setting [6]), the “Rndm Coil” value stood at 34.60%, the α-Helix stood at 13.00%, the β-Sheet was determined as 31.90% and the β-Turn was 19.30%. For the same molecule, on α-glucosidase [4] (setting [7]), the “Rndm Coil” value was determined as 33.40%, the α-Helix is 13.10%, the β-Sheet stood at 31.70% and the β-Turn amounted to 19.10%. For the same molecule, the “effect on cell viability” value in the data set with hepatocytes LO2 cells is reported as “no significant effect on cell viability”.
As to `O=C1c2ccccc2-n2c1c(-c1ccccc1Cl)c1ccccc1c2=O` [Compound 10], the IC50 in data set [1] came out at 12.2 ± 0.46 µM.
For `O=C1c2ccccc2-n2c1c(-c1ccc3ccccc3c1)c1ccccc1c2=O` [Compound 11], in data set [1], the “anti-α-glucosidase activity, times stronger than acarbose” value is recorded as ~ 186 times and the IC50 came out at 3.44 ± 0.36 µM. Besides, at α-glucosidase [2], the “inhibition type (substrate kinetics)” value was “mixed-type inhibition”, the Ki came to 0.46 µM, the Kis stood at 14.57 µM and the Vmax was determined as 0.06 µM/min/mg. Besides, at α-glucosidase [2], the “reversibility of inhibition” value was “reversible”. In addition, on α-glucosidase [3], the “effect on fluorescence intensity” value is “decrease the fluorescence intensity”. On α-glucosidase [4], the “effect on CD band intensity” value is listed as “concentration-dependent increase in the CD band intensity”. On α-glucosidase [4] (setting [5]), the “Rndm Coil” value is 35.60%, the α-Helix was found to be 8.40%, the β-Sheet is 34.30% and the β-Turn came to 20.00%. Also, on α-glucosidase [4] (setting [6]), the “Rndm Coil” value is recorded as 35.60%, the α-Helix is recorded as 8.20%, the β-Sheet was 34.70% and the β-Turn turned out to be 20.00%. Also, at α-glucosidase [4] (setting [7]), the “Rndm Coil” value is 35.80%, the α-Helix is given as 7.80%, the β-Sheet was 35.20% and the β-Turn amounted to 20.10%. Moreover, the “effect on cell viability” value in the data set with hepatocytes LO2 cells is “no significant effect on cell viability”.
For the molecule `COC(=O)c1ccc(-c2c3n(c(=O)c4ccccc24)-c2ccccc2C3=O)cc1` [Compound 12], the IC50 in data set [1] is 32.8 ± 0.72 µM.
Take `O=C1c2cc(Cl)ccc2-n2c1c(-c1ccccc1)c1ccccc1c2=O` [Compound 13]: the IC50 in data set [1] was found to be 6.35 ± 0.25 µM. At α-glucosidase [2], the “inhibition type (substrate kinetics)” value was “mixed-type inhibition”, affinity was put at a Ki of 3.62 µM, the Kis came to 11.65 µM and the Vmax was 0.08 µM/min/mg. Besides, the “reversibility of inhibition” value on α-glucosidase [2] is recorded as “reversible”. In addition, the “effect on fluorescence intensity” value on α-glucosidase [3] is recorded as “decrease the fluorescence intensity”. The “effect on CD band intensity” value at α-glucosidase [4] is listed as “decrease in CD band intensity”. At α-glucosidase [4] (setting [5]), the “Rndm Coil” value stood at 35.60%, the α-Helix is recorded as 8.80%, the β-Sheet turned out to be 40.60% and the β-Turn came to 19.30%. In addition, at α-glucosidase [4] (setting [6]), the “Rndm Coil” value is reported as 35.40%, the α-Helix stood at 9.10%, the β-Sheet was found to be 39.60% and the β-Turn was 19.40%. In addition, at α-glucosidase [4] (setting [7]), the “Rndm Coil” value was 35.10%, the α-Helix is recorded as 11.20%, the β-Sheet was determined as 34.60% and the β-Turn came out at 19.60%. The “effect on cell viability” value with hepatocytes LO2 cells is reported as “no significant effect on cell viability”.
In the case of `Cc1ccc2c(c1)-n1c(c(-c3ccccc3)c3ccccc3c1=O)C2=O` [Compound 14], the IC50 in data set [1] was determined as 17 ± 0.37 µM.
The same measure, in the same setting: then `O=C1c2ccc(Cl)cc2-n2c1c(-c1ccccc1)c1ccccc1c2=O` [Compound 15], with 9.25 ± 0.41 µM; and `O=C1c2cc(F)ccc2-n2c1c(-c1ccccc1)c1ccccc1c2=O` [Compound 16], with 10.1 ± 0.36 µM; and `Cc1ccc2c(=O)n3c(c(-c4ccccc4)c2c1)C(=O)c1ccccc1-3` [Compound 17], with 7.95 ± 0.43 µM.
Still for that read-out and setting: under `Cc1ccc2c(=O)n3c(c(-c4ccccc4)c2c1)C(=O)c1cc(F)ccc1-3` [Compound 20] stands 11.9 ± 0.36 µM.
